Key:
mature postpartum sows = assay: Intravulvar injection at estrus detection with AI in mature postpartum sows (Example 2); format: in vivo, swine; details: 50 mcg intravulvar at first estrus detection
Method: Sows were assigned randomly in blocks of two to either control or to be injected intravulvar with 50 mcg of deslorelin in SAIB at the time of estrus detection for sows first detected in estrus in the a.m. and 12 hours later for those first detected in estrus in the p.m. Treated animals were bred AI upon detected estrus and again 24 hours later if still in estrus. Controls received a saline injection on first detected estrus behavior estrus detection and were bred according to the farm's normal procedures.

postpartum sows = assay: Timed injection 96 hours post-weaning and single timed insemination without estrus detection (Example 3); format: in vivo, swine; details: 50 mcg in SAIB 96 hours post-weaning; single insemination 28+/-2 hours later
Method: Approximately 170 postpartum sows were randomly divided into two equal groups comprised of controls and treated. Following weaning, the controls were detected for estrus and bred following the normal standard operating procedures for the farms on which they resided. The treated sows received a 50 mcg dose of deslorelin in SAIB at 96 hours post-weaning and were bred with a single insemination 28+/−2 hours later with no regard to estrus detection. The sows were examined for pregnancy by ultrasound at 21 days and slaughtered around 28 days post breeding. The entire reproductive tract was removed and corpora lutea and embryos were counted.

With CCNC(=O)[C@@H]1CCCN1C(=O)[C@H](CCCN=C(N)N)NC(=O)[C@H](CC(C)C)NC(=O)[C@@H](Cc1c[nH]c2ccccc12)NC(=O)[C@H](Cc1ccc(O)cc1)NC(=O)[C@H](CO)NC(=O)[C@H](Cc1c[nH]c2ccccc12)NC(=O)[C@H](Cc1cnc[nH]1)NC(=O)[C@@H]1CCC(=O)N1 [Deslorelin, deslorelin] as the compound, how does the “difference in pregnancy rates, Control versus Treated (in words)” value (mature postpartum sows) read?
Its value is “no significant difference”.

What about the “Embryo Survival” value (postpartum sows) of the same compound?
The value was 64%.
